In the supplement of paper PMC10307832:

Legend:
Assay in all cases: relative viability (nuclei count vs DMSO), 5 days (fraction); higher = more cells survive
[1] = compound: C(C(=O)C(=O)O)Br [Bromopyruvate] + N=C(N)NC(=N)NCCc1ccccc1 [Phenformin] (partner 250 µM)
How it was run: (§1)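 Lung cancer cell lines, seeded in 1536-well plates, were treated the following day by pin tool with a single drug or with five library-drug doses (not always all listed) in √10 steps on top of a fixed anchor-drug dose. Cells were fixed and nuclei stained in one step after 5 days, and nuclei were counted. Relative viability is the nuclei count for treated wells divided by that for vehicle wells, reported as medians of duplicate plates.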

[2] = compound: CC(O)(CS(=O)(=O)c1ccc(F)cc1)C(=O)Nc1ccc(C#N)c(C(F)(F)F)c1 [Bicalutamide] + CC(=O)Nc1cccc(-n2c(=O)n(C3CC3)c(=O)c3c(Nc4ccc(I)cc4F)n(C)c(=O)c(C)c32)c1 [Trametinib] (partner 0.02 µM)
How it was run: as §1

[3] = compound: CC(O)(CS(=O)(=O)c1ccc(F)cc1)C(=O)Nc1ccc(C#N)c(C(F)(F)F)c1 [Bicalutamide] + CS(=O)(=O)N1CCN(Cc2cc3nc(-c4cccc5[nH]ncc45)nc(N4CCOCC4)c3s2)CC1 [Pictilisib] (partner 1 µM)
How it was run: as §1

[4] = compound: CC(O)(CS(=O)(=O)c1ccc(F)cc1)C(=O)Nc1ccc(C#N)c(C(F)(F)F)c1 [Bicalutamide] + O=C(CCCCCCC(=O)Nc1ccccc1)NO [Vorinostat] (partner 1 µM)
How it was run: as §1

Cell Line | relative viability ([1]; first compound 1 µM) | relative viability ([1]; first compound 3.162 µM) | relative viability ([1]; first compound 10 µM) | relative viability ([1]; first compound 31.62 µM) | relative viability ([1]; first compound 100 µM) | relative viability ([2]; first compound 0.08 µM) | relative viability ([2]; first compound 0.253 µM) | relative viability ([2]; first compound 0.8 µM) | relative viability ([2]; first compound 2.53 µM) | relative viability ([3]; first compound 0.253 µM) | relative viability ([3]; first compound 0.8 µM) | relative viability ([3]; first compound 2.53 µM) | relative viability ([4]; first compound 0.08 µM) | relative viability ([4]; first compound 0.253 µM) | relative viability ([4]; first compound 0.8 µM) | relative viability ([4]; first compound 2.53 µM) | relative viability ([3]; first compound 0.08 µM)
NCI-H1993 | 0.492 | 0.488 | 0.547 | 0.495 | 0.501 | 0.492 | 0.519 | 0.536 | 0.56 | 0.764 | 0.744 | 0.671 | 0.864 | 0.675 | 0.787 | 0.705 | 
NCI-H2009 | 0.476 | 0.493 | 0.507 | 0.475 | 0.344 | 0.296 | 0.225 | 0.296 | 0.248 | 0.944 | 1.06 | 0.737 | 0.732 | 0.719 | 0.898 | 0.71 | 1.2
NCI-H2023 | 0.39 | 0.415 | 0.478 | 0.419 | 0.429 | 0.547 | 0.52 | 0.556 | 0.382 | 0.21 | 0.253 | 0.178 | 0.69 | 0.608 | 0.893 | 0.349 | 0.279
NCI-H2085 | 0.693 | 0.757 | 0.84 | 0.749 | 0.698 | 0.513 | 0.554 | 0.535 | 0.404 | 0.461 | 0.442 | 0.39 | 0.829 | 0.741 | 0.816 | 0.687 | 0.445
NCI-H2087 | 0.493 | 0.445 | 0.578 | 0.414 | 0.392 | 0.214 | 0.191 | 0.178 | 0.202 | 0.891 | 1.05 | 0.835 | 0.668 | 0.643 | 0.812 | 0.856 | 0.84
NCI-H2126 | 0.556 | 0.534 | 0.518 | 0.54 | 0.513 | 0.546 | 0.523 | 0.545 | 0.626 | 0.468 | 0.511 | 0.43 | 0.716 | 0.712 | 0.931 | 0.75 | 0.494
NCI-H2170 | 0.414 | 0.487 | 0.435 | 0.41 | 0.379 | 0.892 | 0.861 | 0.97 | 0.931 | 0.298 | 0.289 | 0.302 | 0.794 | 0.741 | 0.867 | 0.803 | 0.308
NCI-H2228 | 0.341 | 0.418 | 0.178 | 0.285 | 0.334 | 0.39 | 0.54 | 0.616 | 0.34 | 0.341 | 0.425 | 0.409 | 0.584 | 0.795 | 0.993 | 0.581 | 0.347
NCI-H2347 | 0.463 | 0.35 | 0.572 | 0.312 | 0.566 | 0.283 | 0.287 | 0.307 | 0.249 | 0.728 | 0.876 | 0.632 | 0.574 | 0.587 | 0.709 | 0.581 | 0.735
